Results: US20260364079A1 (Principia Biopharma Inc., priority 2022, published 2026)
“Also recorded” adds a separate entry of the source.

Experiments:
other TEC family members = experiment: preclinical assays of binding persistence, other TEC family members; details: over time
rat Arthus reaction = experiment: rat Arthus reaction; assay type: in vivo
[1] = test system: collagen-induced arthritis; experiment: rat collagen-induced arthritis model; assay type: in vivo
immune thrombocytopenia = experiment: mouse model of immune thrombocytopenia; assay type: in vivo; details: mouse ITP model
human B cell = experiment: in vitro human B cell activation; assay type: cell-based
[2] = in comparison to first and second generation BTKi; cited from earlier work
[3] = humans, oral administration; cited from earlier work

Question: Which results are given for `CC(C)(C=C(C#N)C(=O)N1CCC[C@@H](n2nc(-c3ccc(Oc4ccccc4)cc3F)c3c(N)ncnc32)C1)N1CCN(C2COC2)CC1` (mixture of isomers) [rilzabrutinib, (R)-2-[3-[4-amino-3-(2-fluoro-4-phenoxy-phenyl)pyrazolo[3,4-d]pyrimidin-1-yl]piperidine-1-carbonyl]-4-methyl-4-[4-(oxetan-3-yl)piperazin-1-yl]pent-2-enenitrile]?
Answer: persistence of binding to other TEC family members (other TEC family members): decayed rapidly over time; effect on rat Arthus reaction (rat Arthus reaction): blockade of the rat Arthus reaction; disease reversal [1]: full disease reversal; platelet loss (consumption) (immune thrombocytopenia): reduction in platelet loss; also recorded: significant dose dependent reduction of platelet-loss; human B cell activation (human B cell): profoundly inhibits human B cell activation; cross-reactivity with other molecules [2]: minimal cross-reactivity with other molecules and is low risk for off-target effects; pharmacokinetics variability [3]: variable pharmacokinetics
